Assay results as given in patent publication US5591741A, “Fungicidal spiroheterocyclic derivatives” (American Cyanamid Company, priority 1993, dated 1997).

Legend:
Plasmopara viticola = test: Antisporulant activity against vine downy mildew (PVA); format: in vivo; conditions: vine leaves, antisporulant foliar spray, 600 ppm, 750 l/ha
In short: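 Cabernet Sauvignon vines (~8 cm) inoculated on lower leaf surfaces with 5×10^4 zoosporangia/ml, held 24 h at 21° C high humidity then 24 h glasshouse. Infected leaves sprayed underside with 600 ppm compound in 1:1 water/acetone, 0.04% Tween 20, 750 l/ha; 96 h glasshouse, 24 h humidity. Sporulating leaf area rated versus control.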

Venturia inaequalis = test: Activity against apple scab in-vitro (VII); format: cell-based; conditions: 10 ppm, 10 days, 20° C., mycelial growth
In short: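 V. inaequalis propagules (5×10^4/ml, malt agar-grown) were exposed in half-strength PDB to 10 ppm final test compound delivered in acetone. Growth was scored after incubation for 10 days at 20° C, as a rating relative to untreated or diluent-sprayed controls.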

[1] = test system: Pseudocercosporella herpotrichoides; test: Activity against wheat eyespot in-vitro (PHI); format: cell-based; conditions: 10 ppm, 10 days, 20° C., mycelial growth
In short: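 Mycelial growth was scored after 10 days at 20 °C against untreated or diluent controls. The broth was half-strength potato dextrose, holding 10 ppm test compound (from acetone) and 5×10^4 fragments/ml of the eyespot fungus.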

Leptosphaeria nodorum = test: Activity against wheat leafspot (LN); format: in vivo; conditions: direct therapeutic foliar spray, 600 ppm, 6-8 days
In short: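 Therapeutic foliar spray: compound at 600 ppm applied to single-leaf wheat (cv Norman) 24 h after inoculation with 1.5×10^6 conidia/ml. Disease control scored after 6-8 days at 22° C and 70% humidity as lesions per leaf versus untreated or diluent-sprayed controls.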

Pyricularia oryzae = format: in vivo; conditions: rice seedlings, direct therapeutic foliar spray, 600 ppm, 4-5 days
[2] = test system: Erysiphe graminis f.sp. hordei; test: Direct protectant activity against barley powdery mildew (EGP); format: in vivo; conditions: direct protectant foliar spray, 8 days
In short: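 Rating reflects percentage of leaf area with sporulation compared with untreated or diluent-sprayed controls. Protectant spray was applied to single-leaf barley (cv Golden Promise) 24 h before conidia inoculation. Plants were kept at 18 °C and 40% RH throughout, with 8 days of disease development.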

Botrytis cinerea = test: Direct protectant activity against broad bean grey mould (BCB); format: in vivo; conditions: direct protectant foliar spray, 600 ppm, 4 days
In short: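 Protectant foliar test: lesion coverage assessed 4 days after inoculation and rated relative to untreated or diluent-sprayed plants. Compound applied at 600 ppm to cv The Sutton leaves 24 h before 10^6 conidia/ml suspension; incubation at 22 °C in high humidity.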

[3] = test system: Erysiphe graminis f.sp. hordei; test: Activity against barley powdery mildew, direct therapeutic (EGT); format: in vivo; conditions: direct therapeutic foliar spray, 600 ppm, up to 7 days
In short: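 A curative spray at 600 ppm was applied to single-leaf Golden Promise barley inoculated with powdery mildew conidia the previous day. After up to 7 days at 18 °C and 40% humidity, disease control was rated from percent leaf area sporulating relative to untreated or diluent-sprayed controls.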

Alternaria solani = test: Activity against tomato early blight (AS); format: in vivo; conditions: Table VI; tomato seedlings, contact prophylactic foliar spray, 4 days
In short: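 Plants were challenged with A. solani conidia (10^4 spores/ml) 24 h after a protective foliar spray of compound in 50:50 acetone/water plus 0.04% Tween 20. Held humid at 21° C for 4 days, then percent leaf area with lesions was scored as a rating relative to controls.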

Phytophthora infestans = format: in vivo; conditions: tomato, direct protectant foliar spray
Rhizoctonia solani = test: Activity against Rhizoctonia in-vitro (RSI); format: cell-based; conditions: 10 ppm, 10 days, 20° C., mycelial growth
In short: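 Compound at a final 10 ppm (acetone vehicle) in half-strength PDB, inoculated with 5×10^4 fragments/ml of shaken-culture R. solani mycelium. After incubation at 20° C for 10 days, growth scored as a rating versus untreated or diluent-treated controls.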

Compound	disease control rating PVA (Plasmopara viticola)	disease control rating VII (Venturia inaequalis)	disease control rating PHI [1]	disease control rating LN (Leptosphaeria nodorum)	disease control rating PO (Pyricularia oryzae)	disease control rating EGP [2]	disease control rating BCB (Botrytis cinerea)	disease control rating EGT [3]	disease control rating AS (Alternaria solani)	disease control rating PIP (Phytophthora infestans)	disease control rating RSI (Rhizoctonia solani)
CC(C)(C)C1CCC2(CC1)CC(NC1C3CC4CC(C3)CC1C4)CO2 (centres unmarked) [Compound 86]	0 (less than 50% disease control)	1 (about 50-80% disease control)	0 (less than 50% disease control)	0 (less than 50% disease control)	0 (less than 50% disease control)	2 (greater than 80% disease control)	0 (less than 50% disease control)	2 (greater than 80% disease control)	2 (greater than 80% disease control)	2 (greater than 80% disease control)	0 (less than 50% disease control)
CC1CCCCC1NC1COC2(CCC(C(C)(C)C)CC2)C1 (centres unmarked) [Compound 87]	0 (less than 50% disease control)	1 (about 50-80% disease control)	0 (less than 50% disease control)	0 (less than 50% disease control)	0 (less than 50% disease control)	2 (greater than 80% disease control)	0 (less than 50% disease control)	2 (greater than 80% disease control)	0 (less than 50% disease control)	2 (greater than 80% disease control)	1 (about 50-80% disease control)
CC1CCCC(NC2COC3(CCC(C(C)(C)C)CC3)C2)C1 (centres unmarked) [Compound 88]	0 (less than 50% disease control)	1 (about 50-80% disease control)	0 (less than 50% disease control)	0 (less than 50% disease control)	0 (less than 50% disease control)	2 (greater than 80% disease control)	2 (greater than 80% disease control)	2 (greater than 80% disease control)	0 (less than 50% disease control)	2 (greater than 80% disease control)	1 (about 50-80% disease control)
CC1CCC(NC2COC3(CCC(C(C)(C)C)CC3)C2)CC1 (centres unmarked) [Compound 89]	1 (about 50-80% disease control)	0 (less than 50% disease control)	0 (less than 50% disease control)	1 (about 50-80% disease control)	0 (less than 50% disease control)	2 (greater than 80% disease control)	0 (less than 50% disease control)	2 (greater than 80% disease control)	0 (less than 50% disease control)	0 (less than 50% disease control)	1 (about 50-80% disease control)
CC(C)(C)C1CCC2(CC1)CC(NC1CCC(O)CC1)CO2 (centres unmarked) [Compound 90]	0 (less than 50% disease control)	0 (less than 50% disease control)	0 (less than 50% disease control)	0 (less than 50% disease control)	0 (less than 50% disease control)	2 (greater than 80% disease control)	2 (greater than 80% disease control)	2 (greater than 80% disease control)	0 (less than 50% disease control)	2 (greater than 80% disease control)	0 (less than 50% disease control)
CN(CC1CCCCC1)C1COC2(CCC(C(C)(C)C)CC2)C1 (centres unmarked) [Compound 91]	0 (less than 50% disease control)	0 (less than 50% disease control)	2 (greater than 80% disease control)	1 (about 50-80% disease control)	0 (less than 50% disease control)	2 (greater than 80% disease control)	1 (about 50-80% disease control)	2 (greater than 80% disease control)	0 (less than 50% disease control)	2 (greater than 80% disease control)	0 (less than 50% disease control)
CCN(CC1CCCCC1)C1COC2(CCC(C(C)(C)C)CC2)C1 (centres unmarked) [Compound 92]	0 (less than 50% disease control)	0 (less than 50% disease control)	0 (less than 50% disease control)	0 (less than 50% disease control)	0 (less than 50% disease control)	2 (greater than 80% disease control)	2 (greater than 80% disease control)	2 (greater than 80% disease control)	0 (less than 50% disease control)	2 (greater than 80% disease control)	1 (about 50-80% disease control)
CCCN(CC1CCCCC1)C1COC2(CCC(C(C)(C)C)CC2)C1 (centres unmarked) [Compound 93]	0 (less than 50% disease control)	0 (less than 50% disease control)	0 (less than 50% disease control)	0 (less than 50% disease control)	0 (less than 50% disease control)	2 (greater than 80% disease control)	0 (less than 50% disease control)	2 (greater than 80% disease control)	0 (less than 50% disease control)	2 (greater than 80% disease control)	1 (about 50-80% disease control)
CCC(CC)N(C)C1COC2(CCC(C(C)(C)C)CC2)C1 (centres unmarked) [Compound 94]	0 (less than 50% disease control)	0 (less than 50% disease control)	0 (less than 50% disease control)	1 (about 50-80% disease control)	0 (less than 50% disease control)	2 (greater than 80% disease control)	0 (less than 50% disease control)	2 (greater than 80% disease control)	0 (less than 50% disease control)	0 (less than 50% disease control)	1 (about 50-80% disease control)
CCC(CC)N(CC)C1COC2(CCC(C(C)(C)C)CC2)C1 (centres unmarked) [Compound 95]	0 (less than 50% disease control)	0 (less than 50% disease control)	0 (less than 50% disease control)	0 (less than 50% disease control)	0 (less than 50% disease control)	2 (greater than 80% disease control)	0 (less than 50% disease control)	2 (greater than 80% disease control)	0 (less than 50% disease control)	0 (less than 50% disease control)	1 (about 50-80% disease control)
